Test results as given in US20230117034A1, “PYRAZOLOTRIAZINES” (Bayer Aktiengesellschaft, priority 2019, published 2023).
pIC50: −log10 of the molar value.

How the values were obtained:
[1] = target: T1, CDK9/CycT1 (Homo sapiens, UniProt P50750); experiment: CDK9/CycT1 high ATP kinase assay (TR-FRET, 2 mM ATP); format: biochemical; conditions: 2 mM ATP (high ATP); median; read-out: CDK9/CyclinT1, 2 mM ATP (high ATP), IC50 (median)
T1 construct: Recombinant full-length His-tagged human CDK9 and CycT1; purchased Life Technologies PV4131; host or cells: insect cells
T1 sequence (P50750 whole entry): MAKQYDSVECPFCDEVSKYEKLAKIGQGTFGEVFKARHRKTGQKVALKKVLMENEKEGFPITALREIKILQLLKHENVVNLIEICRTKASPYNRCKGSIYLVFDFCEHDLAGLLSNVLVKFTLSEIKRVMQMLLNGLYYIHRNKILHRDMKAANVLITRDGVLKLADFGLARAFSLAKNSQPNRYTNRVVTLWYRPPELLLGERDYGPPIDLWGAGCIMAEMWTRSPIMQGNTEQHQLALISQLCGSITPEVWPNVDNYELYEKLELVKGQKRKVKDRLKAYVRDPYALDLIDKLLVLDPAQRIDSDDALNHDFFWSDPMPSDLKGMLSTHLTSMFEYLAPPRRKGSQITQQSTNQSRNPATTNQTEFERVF
T1 sequence (O60563 whole entry partner): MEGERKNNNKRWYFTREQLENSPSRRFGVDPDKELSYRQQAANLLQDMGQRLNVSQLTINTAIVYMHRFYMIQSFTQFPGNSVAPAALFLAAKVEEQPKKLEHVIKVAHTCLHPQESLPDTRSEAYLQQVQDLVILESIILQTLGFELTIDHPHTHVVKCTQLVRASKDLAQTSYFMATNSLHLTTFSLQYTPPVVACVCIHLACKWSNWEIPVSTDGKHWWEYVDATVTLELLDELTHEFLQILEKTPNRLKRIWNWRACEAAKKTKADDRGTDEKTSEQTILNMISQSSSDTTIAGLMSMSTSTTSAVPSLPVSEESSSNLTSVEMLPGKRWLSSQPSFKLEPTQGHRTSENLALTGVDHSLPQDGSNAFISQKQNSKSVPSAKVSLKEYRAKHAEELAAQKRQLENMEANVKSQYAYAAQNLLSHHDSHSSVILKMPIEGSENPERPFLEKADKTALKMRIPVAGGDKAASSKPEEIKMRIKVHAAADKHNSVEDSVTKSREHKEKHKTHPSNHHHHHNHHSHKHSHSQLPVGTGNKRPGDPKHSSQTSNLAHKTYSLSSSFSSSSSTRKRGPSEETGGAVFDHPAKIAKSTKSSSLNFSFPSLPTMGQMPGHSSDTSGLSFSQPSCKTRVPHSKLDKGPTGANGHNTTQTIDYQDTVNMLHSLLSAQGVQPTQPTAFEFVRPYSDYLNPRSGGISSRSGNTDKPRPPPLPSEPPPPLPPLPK
In short: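 Full-length His-tagged human CDK9/CycT1 (insect cell, ~0.5 μg/mL) preincubated 15 min at 22 °C with compound in Tris pH 8.0, MgCl2, DTT buffer before reaction with biotinylated peptide substrate at high ATP (2 mM).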

[2] = tested on: CAL-120, human breast adenocarcinoma cells; experiment: Proliferation assay CAL-120 (crystal violet, 4 days); format: cell-based; conditions: Homo sapiens, CAL-120, 96 h, CAL-120 cells, median, read-out: Prolif-CAL-120, IC50-[mol/l] (median)
In short: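 Growth was measured by crystal violet staining after cells had been treated with compounds (0.01-10 µmol/L, 0.1% DMSO) for 4 days, beginning 24 h after seeding. Values were normalized to a zero-point plate and to untreated controls, and IC50 values were derived by a four-parameter fit.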

[3] = target: T2, CDK12 (nuclear staining in CAL-120 cells) (Homo sapiens, UniProt Q9NYV4); experiment: CDK12 nuclear protein level: immunofluorescence/high content analysis (CAL-120); format: cell-based; conditions: for DC50: CAL-120 cells, 24 h, immunofluorescence, 50% reduction of nuclear CDK12 staining intensity, median, read-out: CDK12 degradation IF, DC50- [mol/l] (median); for (IC50 CDK12 high ATP) to (Degradation DC50 CDK12) ratio: ratio of IC50 CDK12 high ATP kinase assay to DC50 CDK12 degradation (IF, CAL-120)
T2 construct: endogenous in cells; host or cells: CAL-120 human breast cancer cells (DSMZ ACC 459)
T2 sequence (Q9NYV4 whole entry): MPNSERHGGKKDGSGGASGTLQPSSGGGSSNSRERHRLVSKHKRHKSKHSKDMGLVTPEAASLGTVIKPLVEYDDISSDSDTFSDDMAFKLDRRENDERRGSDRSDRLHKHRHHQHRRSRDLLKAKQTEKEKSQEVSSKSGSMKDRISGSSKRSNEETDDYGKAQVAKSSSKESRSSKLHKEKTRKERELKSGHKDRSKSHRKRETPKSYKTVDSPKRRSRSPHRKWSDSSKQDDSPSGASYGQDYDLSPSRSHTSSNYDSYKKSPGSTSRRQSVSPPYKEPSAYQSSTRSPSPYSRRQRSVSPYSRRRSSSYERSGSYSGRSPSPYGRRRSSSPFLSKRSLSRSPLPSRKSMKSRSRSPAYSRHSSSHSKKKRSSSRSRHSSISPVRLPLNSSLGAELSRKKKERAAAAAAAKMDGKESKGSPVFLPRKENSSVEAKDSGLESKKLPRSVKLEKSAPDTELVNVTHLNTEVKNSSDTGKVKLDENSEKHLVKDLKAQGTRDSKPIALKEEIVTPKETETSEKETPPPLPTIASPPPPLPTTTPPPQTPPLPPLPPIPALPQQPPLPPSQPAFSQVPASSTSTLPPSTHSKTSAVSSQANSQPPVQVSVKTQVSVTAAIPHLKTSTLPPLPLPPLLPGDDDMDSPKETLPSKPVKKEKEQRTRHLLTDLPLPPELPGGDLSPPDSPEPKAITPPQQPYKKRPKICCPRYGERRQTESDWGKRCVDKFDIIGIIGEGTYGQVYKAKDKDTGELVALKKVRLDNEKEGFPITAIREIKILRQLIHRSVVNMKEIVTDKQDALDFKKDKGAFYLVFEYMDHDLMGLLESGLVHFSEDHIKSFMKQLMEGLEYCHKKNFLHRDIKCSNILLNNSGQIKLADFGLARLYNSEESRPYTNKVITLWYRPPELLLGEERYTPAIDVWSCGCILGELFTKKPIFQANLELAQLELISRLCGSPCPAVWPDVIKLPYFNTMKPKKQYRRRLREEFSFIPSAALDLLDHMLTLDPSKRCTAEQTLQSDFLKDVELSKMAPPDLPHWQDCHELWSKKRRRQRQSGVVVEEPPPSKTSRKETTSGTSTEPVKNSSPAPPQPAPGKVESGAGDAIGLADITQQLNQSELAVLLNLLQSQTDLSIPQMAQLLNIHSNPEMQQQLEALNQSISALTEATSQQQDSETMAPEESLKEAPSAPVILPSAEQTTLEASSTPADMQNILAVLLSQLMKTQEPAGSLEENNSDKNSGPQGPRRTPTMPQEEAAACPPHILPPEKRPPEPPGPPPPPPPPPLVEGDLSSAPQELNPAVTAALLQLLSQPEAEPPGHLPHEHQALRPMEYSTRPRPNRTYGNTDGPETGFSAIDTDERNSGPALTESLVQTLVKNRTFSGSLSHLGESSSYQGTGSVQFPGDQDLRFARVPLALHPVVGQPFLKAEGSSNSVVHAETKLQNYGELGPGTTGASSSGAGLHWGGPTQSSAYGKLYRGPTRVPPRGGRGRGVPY
T2 sequence (O75909 whole entry partner): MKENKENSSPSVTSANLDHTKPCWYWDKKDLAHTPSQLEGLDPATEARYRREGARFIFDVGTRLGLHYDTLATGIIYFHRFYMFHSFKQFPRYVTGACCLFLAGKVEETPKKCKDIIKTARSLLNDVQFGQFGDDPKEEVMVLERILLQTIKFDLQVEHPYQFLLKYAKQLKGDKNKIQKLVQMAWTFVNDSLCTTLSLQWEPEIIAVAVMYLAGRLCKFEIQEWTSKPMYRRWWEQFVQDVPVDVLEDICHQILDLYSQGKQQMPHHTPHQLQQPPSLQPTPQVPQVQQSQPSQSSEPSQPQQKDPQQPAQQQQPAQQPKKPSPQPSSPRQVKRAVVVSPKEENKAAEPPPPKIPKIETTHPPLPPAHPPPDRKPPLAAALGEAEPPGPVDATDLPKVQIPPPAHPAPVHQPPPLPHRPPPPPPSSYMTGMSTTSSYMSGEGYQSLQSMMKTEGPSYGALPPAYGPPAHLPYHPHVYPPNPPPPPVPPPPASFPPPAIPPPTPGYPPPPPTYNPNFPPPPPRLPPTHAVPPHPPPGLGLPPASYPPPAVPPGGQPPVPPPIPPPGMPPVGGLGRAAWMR
In short: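 DC50 is the degrader concentration that halves nuclear CDK12 immunofluorescence relative to controls, measured by high-content imaging. CAL-120 cells were exposed to compound for 24 h at 37 °C before PFA fixation, and signal was normalized to DMSO and control wells.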

[4] = target: T3, CYCLIN K (nuclear staining in CAL-120 cells) (Homo sapiens, UniProt O75909); experiment: CYCLIN K nuclear protein level: immunofluorescence high content analysis (CAL-120); format: cell-based; conditions: 24 h, 50% reduction of nuclear CCNK staining intensity, median, read-out: CYCLIN K degradation IF, DC50-[mol/l] (median)
T3 construct: endogenous in cells; host or cells: CAL-120 human breast cancer cells (DSMZ ACC 459)
T3 sequence (O75909 whole entry): as the sequence (O75909 whole entry partner) above
T3 sequence (Q9NYV4 whole entry partner): as the sequence (Q9NYV4 whole entry) above
In short: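 Readout is automated confocal image analysis of nuclear cyclin K immunofluorescence (Hoechst nuclei) after PFA fixation. Cells were CAL-120, exposed to compound dose-response 24 h at 37 °C; values are DC50 for halving nuclear CCNK signal relative to DMSO and control wells.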

With `CN1CCN(c2nc(NCc3nc4cc(F)c(Cl)cc4[nH]3)n3ncc(C4CC4)c3n2)CC1` [Example 309, N-[(6-chloro-5-fluoro-1H-benzimidazol-2-yl)methyl]-8-cyclopropyl-2-(4-methylpiperazin-1-yl)pyrazolo[1,5-a][1,3,5]triazin-4-amine] the pIC50 [1] was < 4.70, the pIC50 [2] was 8.39 and the DC50 [3] was 8.53 nM. For the same compound, the “(IC50 CDK12 high ATP) to (Degradation DC50 CDK12) ratio” value [3] was >2346 and the DC50 [4] was 0.914 nM.

In the case of `CN1CCN(c2nc(NCc3nc4cc(F)c(F)cc4[nH]3)n3ncc(C4CC4)c3n2)CC1` [Example 311, 8-cyclopropyl-N-[(5,6-difluoro-1H-benzimidazol-2-yl)methyl]-2-(4-methylpiperazin-1-yl)pyrazolo[1,5-a][1,3,5]triazin-4-amine], the pIC50 [1] was < 4.70, the pIC50 [2] was 8.09 and the DC50 [3] was 6.15 nM. For the same compound, the “(IC50 CDK12 high ATP) to (Degradation DC50 CDK12) ratio” value [3] was >3251 and the DC50 [4] was 0.892 nM.

For `FC(F)(F)Cc1cnn2c(NCc3nc4cc(Cl)c(Cl)cc4[nH]3)nc(N3CCOCC3)nc12` [Example 302, N-[(5,6-dichloro-1H-benzimidazol-2-yl)methyl]-2-(morpholin-4-yl)-8-(2,2,2-trifluoroethyl)pyrazolo[1,5-a][1,3,5]triazin-4-amine], the pIC50 [1] was < 4.70, the pIC50 [2] was 8.05 and the “(IC50 CDK12 high ATP) to (Degradation DC50 CDK12) ratio” value [3] was 557. The DC50 [4] was 1.66 nM.
